# Experimental data published in publication PMC10482267, “Safety, tolerability, pharmacokinetics, and pharmacodynamics of single and multiple doses of aficamten in healthy Chinese participants: a randomized, double-blind, placebo-controlled, phase 1 study” (Frontiers in Pharmacology, 2023).
# Several values for one entry are separate records, joined by “and”; a condition that tells them apart may be missing. Equal values may be shown once. Read-outs that look alike come from different tables or passages of the source.
# Columns and labels:
# CYP2D6 = system: CYP2D6; design: method as in not given; details: in vitro; forms metabolites CK-3834282 and CK-3834283; ref not given; cited from earlier work
# [1] = Plasma pharmacokinetics of aficamten and metabolites after single and multiple oral doses, phase 1 study; type: in vivo, human; details: for AR_AUC (accumulation ratio based on AUC0-24) / AR_Cmax (accumulation ratio based on Cmax): day 14 vs day 1; for Tmax / AUC(0-inf) / AUC(0-t) / Cmax / half-life: human
# Experimental: This was a double-blind, randomized, placebo-controlled, phase 1 study including SAD and MD dose cohorts (Figure 1). […] For the second single-dose cohort, 20 mg was chosen as the escalated dose according to the dosing plan scheduled in the phase 3 study (CY 6031: NCT05186818). Furthermore, a multiple oral dose of 5 mg once daily (QD) was selected to explore the steady-state PK exposure in Chinese participants and to compare the findings with the MAD 5 mg QD results in the study CY 6011.
# A total of 28 participants were enrolled in the study, with eight participants per SAD cohort (10 mg and 20 mg) and 12 participants in the MD cohort (5 mg). The sample size chosen for this study was based on other precedent PK studies of similar nature and was not based on power calculations. In each SAD cohort, eight eligible participants were randomized in 3:1 ratio to receive a single oral dose of aficamten or the matching placebo after overnight fasting. The dose escalation criteria (see Supplementary File S1) had to be met to proceed from the SAD 10 mg cohort to the SAD 20 mg cohort. In addition, the SAD 20 mg cohort started at least 5 days after the last subject’s administration in the SAD 10 mg cohort. Upon the completion of the SAD 20 mg cohort, the study proceeded to the MD 5 mg cohort when the dose escalation criteria were met. The MD cohort started at least 5 days later after the last subject’s administration in the SAD 20 mg cohort. In the MD cohort, 12 eligible participants were enrolled and randomized in 3:1 ratio to receive multiple oral doses of 5 mg of aficamten or the matching placebo under fasting conditions for 14 days. The investigator would determine if stopping rules (see Supplementary File S2) were met in this cohort.
# (§1) Blood samples (4 mL) for plasma PK analysis of aficamten and its metabolites (mono-hydroxylated derivative CK-3834282 and its diastereomer CK-3834283) were collected into K2EDTA tubes in the SAD cohorts at the following time points: at pre-dose and at 0.25, 0.5, 1, 1.5, 2, 2.5, 3, 4, 6, 8, 12, 16, 24, 36, 48, 72, 96, and 216 h post-dose. In the MD cohort, blood samples were collected at pre-dose and at 0.25, 0.5, 1, 1.5, 2, 2.5, 3, 4, 6, 8, 12, and 16 h post-dose on day 1; at pre-dose and at 1.5 h post-dose on day 2, days 4–6, and day 9; at pre-dose on day 3, days 7–8, and days 10–13; at pre-dose and at 0.25, 0.5, 1, 1.5, 2, 2.5, 3, 4, 6, 8, 12, 16, 24, 36, 48, 72, 168, and 216 h post-dose on day 14. After collection, blood samples were centrifuged at 1700 g for 10 min at 4°C ± 2°C; plasma was aliquoted and stored at −80°C ± 20°C until analyzed. Meanwhile, samples for urine PK analysis of aficamten were collected in the MD cohort as follows: pre-dose, 0–4 h, 4–8 h, 8–12 h, and 12–24 h on days 1 and 14, respectively.
# (§2) The samples were determined using a validated ultra-performance liquid chromatography-tandem mass spectrometry (UPLC-MS/MS) method. The detection was performed on a tandem mass spectrometer in the electrospray ionization (ESI)-positive mode. The multiple reactions monitoring (MRM) mode was applied to monitor the following ion transitions: m/z 338.2→213.2 for aficamten and m/z 354.3→ 229.3 for metabolite CK-3834282 and its diastereomer CK-3834283. Note that the diastereomers were separated from chromatography during the analysis. The calibration curves of the plasma and urine samples were linear, ranging from 1 to 500 ng/mL, and the intra- and inter-run accuracies (RE%) and precisions (RSD%) were within ±15%. In addition, the selectivity, matrix effect, extraction recovery, carryover, and stability at different conditions were also fully evaluated.
# The plasma PK parameters were evaluated using the plasma concentrations by the non-compartmental model approach using WinNonlin (version 8.3, Certara LP, Princeton, NJ, USA) and were summarized descriptively by the cohort and dose. […]
# [2] = Urine pharmacokinetics of aficamten, MD cohort; type: in vivo, human; details: for Ae(0–24) (amount excreted unchanged in urine) / CL renal: MD 5 mg, mean ± SD; for CL renal: human, urine, oral, 5 mg, read-out: CLr (renal clearance) (converted)
# Experimental: as §1, §2
# The urine PK parameters (MD cohort) were calculated as follows: CLR (renal clearance), Ae (amount of drug excreted unchanged in the urine), and Fe (percentage of drug excreted unchanged in the urine).
# [3] = MD 5 mg once daily, mean ± SD, listed as Aficamten
smiles,measurement,setting,value
CCc1nc(-c2ccc3c(c2)CC[C@H]3NC(=O)c2cnn(C)c2)no1 [aficamten],CYP isoform involved in metabolism,CYP2D6,"CYP2D6, as the primary isoform involved in aficamten metabolism"
same,AR_AUC (accumulation ratio based on AUC0-24),"[1]; MD 5 mg once daily, mean ± SD",4.2 and 4.16
same,AR_Cmax (accumulation ratio based on Cmax),"[1]; MD 5 mg once daily, mean ± SD",1.8
same,AR_AUC (accumulation ratio based on AUC0-24),[1]; [3],4.2 ± 0.4
same,AR_Cmax (accumulation ratio based on Cmax),[1]; [3],1.8 ± 0.6
same,t1/2,"[1]; MD 5 mg, day 14, plasma, mean ± SD",76.8 ± 11.8 h
same,"tmax (tmax,ss)","[1]; MD 5 mg, day 14, plasma, median (minimum, maximum)","0.5 (0.25, 2.0) h"
same,CL/F,"[1]; MD 5 mg, day 14, mean ± SD",3.8 ± 0.6 L/h
same,V/F,"[1]; MD 5 mg, day 14, mean ± SD",412.7 ± 66.1 L
same,CL/F,"[1]; SAD 10 mg, mean ± SD",3.0 ± 0.19 L/h
same,V/F,"[1]; SAD 10 mg, mean ± SD",320.3 ± 51.3 L
same,t1/2,"[1]; SAD 20 mg, plasma, mean ± SD",77.3 ± 13.6 h
same,CL/F,"[1]; SAD 20 mg, mean ± SD",3.4 ± 0.2 L/h
same,V/F,"[1]; SAD 20 mg, mean ± SD",371.9 ± 55.4 L
same,"dose proportionality of plasma exposure (AUC0-24 and Cmax), in words",[1]; dose range 5–20 mg,dose-proportional
same,Tmax,"[1]; oral, MD 5 mg, day 1, plasma, median (minimum, maximum), read-out: tmax",0.5 h
same,AUC(0-inf),"[1]; oral, SAD 10 mg, plasma, mean ± SD",3340 ± 223 ng·h/mL
same,Tmax,"[1]; oral, SAD 10 mg, plasma, median (minimum, maximum), read-out: tmax",0.75 h
same,AUC(0-inf),"[1]; oral, SAD 20 mg, plasma, mean ± SD",5990 ± 415 ng·h/mL
same,Tmax,"[1]; oral, SAD 20 mg, plasma, median (minimum, maximum), read-out: tmax",0.5 h
same,AUC(0-t),"[1]; plasma, oral, 5 mg, MD 5 mg once daily, day 1, plasma, mean ± SD, N = 9, read-out: AUC0-24",325 ± 32.6 ng·h/mL
same,AUC(0-t),"[1]; plasma, oral, 5 mg, MD 5 mg once daily, day 14, plasma, mean ± SD, N = 9, read-out: AUC0-24",1360 ± 215 ng·h/mL
same,AUC(0-t),"[1]; plasma, oral, 5 mg, MD 5 mg, day 1, plasma, mean ± SD, read-out: AUC0-t",324 ± 32.5 ng·h/mL
same,Cmax,"[1]; plasma, oral, 5 mg, MD 5 mg, day 1, plasma, mean ± SD, read-out: Cmax",72.6 ± 19.5 ng/mL
same,half-life,"[1]; plasma, oral, 5 mg, MD 5 mg, day 1, plasma, mean ± SD, read-out: t1/2 (converted)",38.6 ± 16.1 h
same,Cmax,"[1]; plasma, oral, 5 mg, MD 5 mg, day 14, plasma, mean ± SD, read-out: Cmax (Cmax,ss)",122 ± 35.2 ng/mL
same,half-life,"[1]; plasma, oral, 5 mg, MD 5 mg, day 14, plasma, mean ± SD, read-out: t1/2 (converted)",~77 h
same,AUC(0-t),"[1]; plasma, oral, 10 mg, SAD 10 mg, plasma, mean ± SD, read-out: AUC0-t",2780 ± 249 ng·h/mL
same,Cmax,"[1]; plasma, oral, 10 mg, SAD 10 mg, plasma, mean ± SD, read-out: Cmax",115 ± 29.9 ng/mL
same,half-life,"[1]; plasma, oral, 10 mg, SAD 10 mg, plasma, mean ± SD, read-out: t1/2 (converted)",73.8 ± 10.2 h
same,AUC(0-t),"[1]; plasma, oral, 20 mg, SAD 20 mg, plasma, mean ± SD, read-out: AUC0-t",5290 ± 372 ng·h/mL
same,Cmax,"[1]; plasma, oral, 20 mg, SAD 20 mg, plasma, mean ± SD, read-out: Cmax",227 ± 71.8 ng/mL
same,Tmax,"[1]; plasma, oral, all cohorts, read-out: time of peak concentration (tmax day 1, tmax,ss day 14)",0.5 to 0.75 h
same,AUC(0-t),"[1]; plasma, po, 10 mg, SAD 10 mg single oral dose, fasted, plasma, mean ± SD, N = 6, read-out: AUC0-24",670 ± 85 ng·h/mL
same,AUC(0-t),"[1]; plasma, po, 20 mg, SAD 20 mg single oral dose, fasted, plasma, mean ± SD, N = 6, read-out: AUC0-24",1300 ± 151 ng·h/mL
same,half-life,"[1]; plasma, po, across single oral dose 10 mg and 20 mg and 14 days QD 5 mg, read-out: mean half-life",74 to 77 h
same,half-life,"[1]; plasma, po, single oral dose of 10 mg and 20 mg of aficamten, across both doses, read-out: t1/2 (arithmetic mean)",74 to 77 h
same,Ae(0–24) (amount excreted unchanged in urine),"[2]; day 1, urine",3.2 ± 2.6 µg
same,Ae(0–24) (amount excreted unchanged in urine),"[2]; day 14, urine",18.5 ± 8.0 µg
same,CL renal,"[2]; day 1, urine",0.158 mL/min
same,CL renal,"[2]; day 14, urine",0.228 mL/min
same,drug excreted with urine in unchanged form,[2]; multiple doses of 5 mg,about 0.37%
